Test [1] has as its target T1, LYP/PTPN22 (Homo sapiens, UniProt Q9Y2R2).
T1 construct: catalytic domains of LYP (aa 2-309) and PTP-PEST (aa 2-323, PEST); 6xHis (N, cleaved yes); made in house; host or cells: E. coli BL21
T1 sequence (Q9Y2R2 2-309): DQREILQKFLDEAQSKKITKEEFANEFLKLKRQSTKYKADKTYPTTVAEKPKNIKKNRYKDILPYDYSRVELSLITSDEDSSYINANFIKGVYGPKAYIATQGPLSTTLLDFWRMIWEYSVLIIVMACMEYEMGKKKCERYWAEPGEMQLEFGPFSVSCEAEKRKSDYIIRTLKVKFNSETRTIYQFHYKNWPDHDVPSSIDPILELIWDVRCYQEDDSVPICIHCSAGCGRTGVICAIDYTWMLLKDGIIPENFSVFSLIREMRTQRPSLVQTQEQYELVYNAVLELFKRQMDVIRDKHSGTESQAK
Kind of test: biochemical.
Protocol: Chemical Library Screening for LYP Inhibitors. A library consisting of a highly diverse set of 4,000 compounds was screened in a 96-well format in an assay specific for LYP activity. […] The reaction mixture with the compounds was incubated for 25 min at 37° C. […] All assays were done in triplicate. The IC50 values were then determined for each drug from a plot of log [drug concentration] versus percentage of enzyme inhibition. Absorbance data were measured using a Molecular Devices Emax Precision Microplate reader.
Identification of Compounds as LYP Inhibitors. We initially screened a library of 4000 drug-like small-molecule compounds against LYP/PTPN22, using p-nitrophenyl phosphate (pNPP) as a substrate. The ability of the library members to inhibit LYP/PTPN22 catalyzed hydrolysis of pNPP was measured in a buffer containing 50 mM Bis-Tris pH 6.0, 1 mM DTT at 37° C.

The target in test [2] is T2, PTP-PEST (Homo sapiens, UniProt Q05209).
T2 sequence (Q05209 2-323): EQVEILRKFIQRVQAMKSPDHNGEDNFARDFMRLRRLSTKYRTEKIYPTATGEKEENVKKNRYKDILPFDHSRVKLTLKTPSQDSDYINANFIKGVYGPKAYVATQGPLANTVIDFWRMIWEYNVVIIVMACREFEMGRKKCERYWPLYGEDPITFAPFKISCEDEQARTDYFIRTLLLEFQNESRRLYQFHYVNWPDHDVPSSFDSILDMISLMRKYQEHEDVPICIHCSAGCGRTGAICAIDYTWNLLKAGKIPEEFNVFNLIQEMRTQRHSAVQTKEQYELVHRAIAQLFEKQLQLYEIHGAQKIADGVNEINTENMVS
The test is described as follows: Counter-screen phosphatase assay PTP-PEST. The note with it: read-out: PEST IC50. It counts as biochemical. For orientation: The purpose of a counterscreen is to sort out artefacts and off-target activity.

Where [3] appears, read: LYP IC50, Table IV, analogues of E3P13.
[4] abbreviates: selectivity, ratio PEST IC50 / LYP IC50, Table IV.
[5] abbreviates: Table IV, analogues of E3P13, read-out: LYP IC50.

Read-outs that look alike come from different tables or passages of the source. Bounds are passed on as bounds.

In the case of `Cc1cccc2cc([C@H](c3nnnn3C3CCCC3)N3CCC[C@@H](C)C3)c(=O)[nH]c12` [compound 72], in test [1] (setting [3]), the IC50 (in general, the point on the concentration scale where inhibition reaches its midpoint) is over 40 µM. With `Cc1cc(C)c2[nH]c(=O)c([C@H](c3nnnn3C3CCCC3)N3CCC[C@@H](C)C3)cc2c1` [compound 49], the figures for the IC50 in test [1] (setting [3]) and in test [2] were 39.5 µM and 45.5 µM, respectively. For the same compound, in test [1] (setting [4]), the PEST_LYP amounted to 1.15. With `Cc1cc(C)c2[nH]c(=O)c([C@@H](c3nnnn3Cc3ccccc3)N3CCCC4(CCCCC4)C3)cc2c1` [compound 14], the IC50 in test [1] (setting [3]) came out at 12.9 µM; in test [2], 15.2 µM. Besides, the PEST_LYP in test [1] (setting [4]) is reported as 1.18.

As for `Cc1ccc2cc(C(c3nnnn3C3CCCC3)N3CCN(C(c4ccccc4)c4ccccc4)CC3)c(=O)[nH]c2c1` (stereo not drawn) [compound 5], the PEST_LYP in test [1] is reported as 0.81. The IC50 in test [1] (LYP IC50) turned out to be 7.86 µM; in test [2] it was 9.66 µM. Take `Cc1ccc2cc([C@H](c3nnnn3Cc3ccccc3)N3CCCC4(CCCCC4)C3)c(=O)[nH]c2c1C` [compound 25]: the IC50 was 18.1 µM in test [1] (setting [3]) and 17.8 µM in test [2]. The PEST_LYP in test [1] (setting [4]) is on record as 0.99. Turning to `COc1ccc2cc([C@@H](c3nnnn3C3CCCC3)N3CCC(C)CC3)c(=O)[nH]c2c1` [compound 65], the IC50 in test [1] (setting [3]) was over 40 µM. Compound `COc1ccc(N2CCN([C@H](c3cc4ccc(OC)cc4[nH]c3=O)c3nnnn3C3CCCC3)CC2)cc1` [compound 67] registered an IC50 in test [1] (setting [3]) of over 40 µM. Turning to `COc1ccc2cc([C@H](c3nnnn3Cc3ccccc3)N3CCCC4(CCCCC4)C3)c(=O)[nH]c2c1` [compound 27], the IC50 in test [1] (setting [3]) stood at 19.3 µM; in test [2] it was 13.7 µM. The PEST_LYP in test [1] (setting [4]) came to 0.71. On the same counts, the results for `Cc1cccc2cc([C@H](c3nnnn3Cc3ccccc3)N3CCCC4(CCCCC4)C3)c(=O)[nH]c12` [compound 31] are 20.4 µM, 29.8 µM and 1.46. In the same order, the values of `CCC(C)(C)n1nnnc1[C@@H](c1cc2cccc(C)c2[nH]c1=O)N1CCCC2(CCCCC2)C1` [compound 18] are 13.4 µM, 12.9 µM and 0.96. Take `Cc1ccc2[nH]c(=O)c([C@H](c3nnnn3C(C)(C)C)N3CCCC4(CCCCC4)C3)cc2c1` [compound 33]: the IC50 in test [1] (setting [3]) amounted to 21.2 µM; in test [2], 28.2 µM. Further, the PEST_LYP in test [1] (setting [4]) came to 1.33.

`COc1ccccc1N1CCN([C@H](c2cc3cc(C)ccc3[nH]c2=O)c2nnnn2C2CCCC2)CC1` [compound 50]: the IC50 in test [1] (setting [5]) was over 40 µM. For `Cc1ccc2cc([C@H](c3nnnn3C3CCCC3)N3CCN(c4ccccc4)CC3)c(=O)[nH]c2c1` [compound 41], the IC50 in test [1] (setting [3]) was 31 µM; in test [2], about 36.5 µM. Moreover, the PEST_LYP in test [1] (setting [4]) is reported as about 1.18. In the same order, the values of `Cc1cc(C)c2cc([C@H](c3nnnn3C3CCCC3)N3CCC[C@@H](C)C3)c(=O)[nH]c2c1` [compound 40] are 30.6 µM, 34.4 µM and 1.12. In the case of `Cc1ccc2[nH]c(=O)c([C@@H](c3nnnn3Cc3ccccc3)N3CCCC4(CCCCC4)C3)cc2c1` [compound 11], the IC50 in test [1] (setting [3]) came out at 11.1 µM; in test [2], 15.1 µM. The PEST_LYP in test [1] (setting [4]) is given as 1.36. The compound `Cc1cc(C)c2cc(C(c3nnnn3C3CCCC3)N3CCCC4(CCCCC4)C3)c(=O)[nH]c2c1` (stereo not drawn) [compound 10] returned a PEST_LYP in test [1] of 1.44. In addition, the IC50 in test [1] (LYP IC50) is 11.1 µM; in test [2] it was 16 µM. Regarding `Cc1ccc2[nH]c(=O)c([C@H](c3nnnn3C3CCCC3)N3CCN(c4nc5ccccc5[nH]4)CC3)cc2c1` [compound 38], the IC50 was found to be 30.1 µM in test [1] (setting [3]) and 38.6 µM in test [2]. Also, the PEST_LYP in test [1] (setting [4]) is listed as 1.26. On to `Cc1ccc2[nH]c(=O)c([C@H](c3nnnn3C3CCCC3)N3CCN(C4CCCCC4)CC3)cc2c1` [compound 73], for which the IC50 in test [1] (setting [5]) was over 40 µM. In test [1] (setting [3]), `Cc1ccc2cc([C@H](c3nnnn3C3CCCC3)N3CCC[C@@H](C)C3)c(=O)[nH]c2c1C` [compound 60] gave an IC50 of over 40 µM.

`CCN1CCN([C@H](c2cc3cc(C)ccc3[nH]c2=O)c2nnnn2C2CCCC2)CC1` [compound 52]: the IC50 in test [1] (setting [5]) is over 40 µM. `COc1ccc2cc([C@H](c3nnnn3CC3CCCC3)N3CCCC4(CCCCC4)C3)c(=O)[nH]c2c1` [compound 55] yielded an IC50 in test [1] (setting [3]) of over 40 µM. As to `CCC(C)(C)n1nnnc1[C@@H](c1cc2cc(C)ccc2[nH]c1=O)N1CCCC2(CCCCC2)C1` [compound 9], the results for the IC50 in test [1] (setting [3]) and in test [2] were 10.4 µM and 15.9 µM, respectively. Besides, the PEST_LYP in test [1] (setting [4]) is 1.53. In the case of `Cc1ccc2cc([C@H](c3nnnn3C(C)(C)C)N3CCCC4(CCCCC4)C3)c(=O)[nH]c2c1` [compound 29], the values for the IC50 in test [1] (setting [3]) and in test [2] were 20.3 µM and 27.1 µM, respectively. In addition, in test [1] (setting [4]), the PEST_LYP is on record as 1.33. On to `Cc1ccc2[nH]c(=O)c([C@H](c3nnnn3C3CCCC3)N3CCN(C)CC3)cc2c1` [compound 56], for which the IC50 in test [1] (setting [5]) is over 40 µM. Take `Cc1ccc2[nH]c(=O)c([C@H](c3nnnn3C3CCCC3)N3CCC[C@@H](C)C3)cc2c1` [compound 24]: in test [2], the IC50 turned out to be 26.5 µM.

As for `Cc1ccc2[nH]c(=O)c(C(c3nnnn3C3CCCC3)N(Cc3ccccc3)Cc3ccc(C(C)C)cc3)cc2c1` (stereo not drawn) [compound 1], the IC50 in test [2] came out at 5.55 µM.

For `Cc1ccc2[nH]c(=O)c([C@H](c3nnnn3C3CCCC3)N3CCN(Cc4ccccc4)CC3)cc2c1` [compound 80], the IC50 in test [1] (setting [5]) was over 40 µM. `Cc1cccc2cc([C@H](c3nnnn3CC3CCCC3)N3CCCC4(CCCCC4)C3)c(=O)[nH]c12` [compound 51] had an IC50 in test [1] (setting [3]) of over 40 µM.

Turning to `Cc1ccc2[nH]c(=O)c([C@H](c3nnnn3C3CCCC3)N3CCN(c4ccc(F)cc4)CC3)cc2c1` [compound 45], the IC50 in test [2] came out at 38 µM. Turning to `Cc1ccc2[nH]c(=O)c([C@@H](c3nnnn3C3CCCC3)N3CCOCC3)cc2c1` [compound 58], in test [1] (setting [3]), the IC50 was over 40 µM.

As to `CCOC(=O)C1CCN([C@H](c2cc3cc(C)ccc3[nH]c2=O)c2nnnn2C2CCCC2)CC1` [compound 79], the IC50 in test [1] (setting [3]) was over 40 µM. In test [1] (setting [3]), `Cc1ccc2[nH]c(=O)c([C@H](c3nnnn3C3CCCC3)N(C)C3CCCCC3)cc2c1` [compound 53] had an IC50 of over 40 µM. Same read-out and setting: in the case of `Cc1cc(C)c2[nH]c(=O)c([C@H](c3nnnn3C3CCCC3)N3CCCCC3)cc2c1` [compound 61] it was over 40 µM; in that of `Cc1cc(C)c2cc([C@H](c3nnnn3C3CCCC3)N3CCCCC3)c(=O)[nH]c2c1` [compound 70], over 40 µM. In the case of `Cc1ccc2[nH]c(=O)c([C@H](c3nnnn3C3CCCC3)N3CCN(c4ccc(O)cc4)CC3)cc2c1` [compound 74], the IC50 in test [1] (setting [5]) was over 40 µM.

As to `Cc1cccc2cc([C@H](c3nnnn3C3CCCCC3)N3CCN(Cc4ccccc4)CC3)c(=O)[nH]c12` [compound 69], the IC50 in test [1] (setting [3]) was over 40 µM. Still for that read-out and setting: next, `Cc1ccc2[nH]c(=O)c([C@@H](c3nnnn3C3CCCC3)N3CCCC3)cc2c1` [compound 59]: over 40 µM; `COc1ccc2cc([C@H](c3nnnn3C3CCCC3)N3CCN(c4ccccc4)CC3)c(=O)[nH]c2c1` [compound 66]: over 40 µM. Same read-out and setting: in the case of `Cc1cc(C)c2[nH]c(=O)c([C@H](c3nnnn3C3CCCC3)N3CCC(C)CC3)cc2c1` [compound 62] it was over 40 µM; in that of `Cc1cccc2cc([C@@H](c3nnnn3C3CCCC3)N3CCCCC3)c(=O)[nH]c12` [compound 76], over 40 µM.

The compound `Cc1ccc2[nH]c(=O)c([C@H](c3nnnn3C3CCCC3)N3CCC(O)CC3)cc2c1` [compound 78] yielded an IC50 in test [1] (setting [3]) of over 40 µM. `Cc1ccc2[nH]c(=O)c([C@H](c3nnnn3C3CCCC3)N3CCN4CCC[C@H]4C3)cc2c1` [compound 57] yielded an IC50 in test [1] (setting [3]) of over 40 µM. Same read-out and setting: in the case of `Cc1ccc2cc([C@@H](c3nnnn3C3CCCC3)N3CCCCC3)c(=O)[nH]c2c1C` [compound 63] it was over 40 µM. Still for that read-out and setting: in the case of `Cc1ccc2cc([C@@H](c3nnnn3C3CCCC3)N3CCCCC3)c(=O)[nH]c2c1` [compound 68] it was over 40 µM. `Cc1ccc2[nH]c(=O)c([C@H](c3nnnn3C3CCCC3)N3CCN(Cc4ccccc4)CC3)cc2c1` [compound 77]: the IC50 in test [1] (setting [5]) is over 40 µM. Consider `Cc1ccc2[nH]c(=O)c([C@@H](c3nnnn3C3CCCC3)N(Cc3ccccc3)Cc3ccc(Cl)cc3)cc2c1` [compound 7], for which the IC50 in test [2] came out at 17 µM. Regarding `Cc1cc(C)c2cc([C@H](c3nnnn3C3CCCC3)N3CCC(C)CC3)c(=O)[nH]c2c1` [compound 71], the IC50 in test [1] (setting [3]) is over 40 µM. The same measure, in the same setting: next, `Cc1ccc2[nH]c(=O)c([C@@H](c3nnnn3C3CCCC3)N3CCCCCC3)cc2c1` [compound 54]: over 40 µM.

Turning to `COc1ccc(CN(Cc2ccccc2)[C@@H](c2cc3cc(C)ccc3[nH]c2=O)c2nnnn2C2CCCC2)cc1` [compound 15], in test [2], the IC50 was found to be 15.1 µM. In test [1] (setting [3]), `Cc1cccc2cc([C@H](c3nnnn3C3CCCC3)N3CCN(C)CC3)c(=O)[nH]c12` [compound 75] returned an IC50 of over 40 µM. On the same count and under the same terms, in the case of `COc1ccc2cc([C@@H](c3nnnn3C3CCCC3)N3CCCCC3)c(=O)[nH]c2c1` [compound 64] it was over 40 µM.

Source of the values: patent US20100210836A1, “SMALL MOLECULE INHIBITORS OF LYMPHOID TYROSINE PHOSPHATASE” (University of Southern California, priority 2009, published 2010).
